Data: paper PMC9981671, “rRNA methylation by Spb1 regulates the GTPase activity of Nog2 during 60S ribosomal subunit assembly” (Nature Communications, 2023)

Biological target: Nog2 (Saccharomyces cerevisiae, UniProt P53742)
Experiment: cryo-EM structure of native pre-60S particle, […] A
Format: binding
Settings: Nog2pre from spb1 D52A strain (unmethylated G2922); GTPase site with Mg2+ and K+; pH 8.0; also Nog2post (7UUI) and Nog2pre from spb1 D52A/E769K strain (7V08)

Chain of Nog2 (P53742 whole entry): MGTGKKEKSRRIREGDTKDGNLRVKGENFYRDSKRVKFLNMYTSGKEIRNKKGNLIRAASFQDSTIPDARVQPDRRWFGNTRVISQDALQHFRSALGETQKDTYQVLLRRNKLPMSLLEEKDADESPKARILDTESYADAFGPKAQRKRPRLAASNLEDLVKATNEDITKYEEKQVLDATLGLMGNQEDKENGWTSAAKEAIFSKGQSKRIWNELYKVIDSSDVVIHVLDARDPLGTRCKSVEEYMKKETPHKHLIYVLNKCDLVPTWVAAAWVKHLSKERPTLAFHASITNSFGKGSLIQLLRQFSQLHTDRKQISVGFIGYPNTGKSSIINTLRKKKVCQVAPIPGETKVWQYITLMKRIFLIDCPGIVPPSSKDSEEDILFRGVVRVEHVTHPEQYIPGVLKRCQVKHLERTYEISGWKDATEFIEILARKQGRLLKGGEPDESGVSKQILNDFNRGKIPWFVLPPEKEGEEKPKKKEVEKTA

Nc1nc2c(ncn2[C@@H]2O[C@H](COP(=O)(O)OP(=O)(O)O)[C@@H](O)[C@H]2O)c(=O)[nH]1 [GDP]
cryo-EM structure of native pre-60S particle, 2.4 A: GTP hydrolysis has taken place and that GDP occupies the Nog2 active site
